Experimental data: patent publication US20250289826A1, “PLPRO PROTEIN INHIBITOR, AND PREPARATION METHOD AND APPLICATION THEREOF” (priority 2022, published 2025)
Several values for one entry are separate records, joined by “and”; a condition that tells them apart may be missing. Identical values can stand only once.

Tests used:
PLpro = PLpro (Severe acute respiratory syndrome coronavirus 2 (2019-nCoV) (SARS-CoV-2), UniProt P0DTD1); test: Assay for PLpro inhibitory activity (Ub-AMC fluorescence; single point inhibition test and IC50 determination); format: biochemical; conditions: for IC50: fluorescence measured after 15 min of reaction; for inhibition at 1 µM: read-out: inhibition of PLpro (1 μM), 1 μM test compound, 100 nM PLpro, 10 μM Ub-AMC, 37° C. 30 min
[1] = tested on: SARS-CoV-2 live virus (Delta strain); test: microbe, parasite or virus in culture; format: cell-based
[2] = Severe acute respiratory syndrome coronavirus 2, Calu-3, 48 h

Row | SMILES | IC50 (PLpro) | inhibition at 1 µM (PLpro) | further results
1 | Cc1ccc(N2CC(N(C)C)C2)cc1C(=O)NC1(c2ccc(F)c3ncccc23)CC1 [Example C26] | 38.3 ± 5.27 nM | 95.9% | Inhibition rate/% ([1]; 3.125 nM, Calu-3 cells, Delta strain, 48 h, three replicate values): 2.076% and 45.3104% and −0.0016%; Inhibition rate/% ([1]; 6.25 nM, Calu-3 cells, Delta strain, 48 h, three replicate values): 37.9405% and 58.6715% and 67.2927%; Inhibition rate/% ([1]; 12.5 nM, Calu-3 cells, Delta strain, 48 h, three replicate values): −4.0599% and 50.6792% and 17.0436%; Inhibition rate/% ([1]; 25 nM, Calu-3 cells, Delta strain, 48 h, three replicate values): −64.656% and 17.2863% and 31.5856%; Inhibition rate/% ([1]; 50 nM, Calu-3 cells, Delta strain, 48 h, three replicate values): 92.4972% and 64.3219% and 67.0889%; Inhibition rate/% ([1]; 100 nM, Calu-3 cells, Delta strain, 48 h, three replicate values): 93.9064% and 96.0939%; Inhibition rate/% ([1]; 200 nM, Calu-3 cells, Delta strain, 48 h, three replicate values): 99.5887% and 99.6848%; Inhibition rate/% ([1]; 400 nM, Calu-3 cells, Delta strain, 48 h, three replicate values): 99.9327% and 99.8544%; EC50 [1, 2]: 36.3 ± 4.11 nM; EC90 [1, 2]: 73.1 ± 7.23 nM; inhibition at 0.1 µM ([1]; Severe acute respiratory syndrome coronavirus 2, Calu-3, 48 h, 100 nM, Calu-3 cells, Delta strain, 48 h, three replicate values, read-out: Inhibition rate/%): 92.2%; inhibition at 0.2 µM ([1]; Severe acute respiratory syndrome coronavirus 2, Calu-3, 48 h, 200 nM, Calu-3 cells, Delta strain, 48 h, three replicate values, read-out: Inhibition rate/%): 99.9%; inhibition at 0.4 µM ([1]; Severe acute respiratory syndrome coronavirus 2, Calu-3, 48 h, 400 nM, Calu-3 cells, Delta strain, 48 h, three replicate values, read-out: Inhibition rate/%): 100%; inhibition of SARS-CoV-2 live virus infecting human cells (in words) ([1]; in vitro experiment): can effectively inhibit SARS-CoV-2 live virus from infecting human cells
2 | Cc1ccc(N2CC(N(C)C)C2)cc1C(=O)NC1(c2ccc(C)c3ncccc23)CC1 [Example C75] | 4.71 ± 1.38 nM | 99.4% | –
3 | COc1ccc(C2(NC(=O)c3cc(N4CC(N(C)C)C4)ccc3C)CC2)c2cccnc12 [Example C76] | 15.9 ± 3.25 nM | 99.6% | –
4 | Cc1ccc(N2CC(N(C)C)C2)cc1C(=O)NC1(c2cccc3c2OCCO3)CC1 [Example C77] | – | 63% | –
5 | Cc1ccc(N2CC(N(C)C)C2)cc1C(=O)NC1(c2cccc3c2OCO3)CC1 [Example C78] | – | 25.4% | –
6 | Cc1ccc(Br)cc1/C=N/C1(c2ccc(F)c3ncccc23)CC1 [Example C79] | – | 16.5% | –
7 | Cc1ccc(N2CC(N(C)C)C2)cc1/C=N/C1(c2ccc(F)c3ncccc23)CC1 [Example C80] | – | 11.9% | –
8 | Cc1ccc(N2CC(CN)C2)cc1C(=O)NC1(c2ccc(F)c3ncccc23)CC1 [Example C81] | – | 37.1% | –
9 | Cc1ccc(N2CC(C(C)(C)N)C2)cc1C(=O)NC1(c2ccc(F)c3ncccc23)CC1 [Example C82] | – | 8.2% | –
10 | Cc1ccc(N2CC(CN(C)C)C2)cc1C(=O)NC1(c2ccc(F)c3ncccc23)CC1 [Example C83] | – | 24.2% | –
11 | Cc1ccc(N2CC(N(C)C)C2)cc1CNC1(c2ccc(F)c3ncccc23)CC1 [Example C85] | – | 45.7% | –
12 | Cc1ccc(N)cc1CNC1(c2ccc(F)c3ncccc23)CC1 [Example C86] | – | 33.5% | –
13 | Cc1ccc(N)cc1C(=O)NC1(c2ccc(F)c3ncccc23)CC1 [Example C87] | – | 23.1% | –
14 | Cc1ccc(N2CC(N(C)C)C2)cc1C(=O)NC1(c2ccc(N(C)C)c3ccccc23)CC1 [Example C88] | 175 nM | 96.2% | –
15 | Cc1ccc2c(C3(NC(=O)c4cc(N5CC(N(C)C)C5)ccc4C)CC3)ccc(F)c2n1 [Example C89] | 119 nM | 82% | –
16 | [2H]C1([2H])C(N(C)C)C([2H])([2H])N1c1ccc(C)c(C(=O)NC2(c3ccc(F)c4ncccc34)CC2)c1 [Example C90] | 69.8 nM | 85% | –
17 | Cc1ccc(N2CC(N(C)C)C2)cc1C(=O)NC1(c2cccc3c2ccn3C)CC1 [Example C91] | – | 71% | –
